Reference: US7384787B2, “Increasing perhydrolase activity in esterases and/or lipases” (Regents of the University of Minnesota, priority 2005, dated 2008)
Read-outs that look alike come from different tables or passages of the source.

Columns and labels:
[1] = target: T1, Pseudomonas fluorescens aryl esterase (PFE), wild-type, SEQ ID NO:3 (Pseudomonas fluorescens, UniProt P22862)
T1 sequence (P22862 1-272): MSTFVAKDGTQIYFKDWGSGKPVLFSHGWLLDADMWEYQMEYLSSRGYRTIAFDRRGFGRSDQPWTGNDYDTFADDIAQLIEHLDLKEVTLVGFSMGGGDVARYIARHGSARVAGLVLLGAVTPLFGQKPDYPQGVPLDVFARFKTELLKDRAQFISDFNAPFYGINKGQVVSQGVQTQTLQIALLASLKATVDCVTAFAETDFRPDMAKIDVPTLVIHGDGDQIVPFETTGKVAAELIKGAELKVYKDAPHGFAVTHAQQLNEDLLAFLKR
Description: (§1) Activity assays were performed in quadruplicates on 96-well microtiter plates with a reaction volume of 100 μl (90 μl assay solution to 10 μl enzyme in 5 mM BES pH 7.2). The path-length for light through the well was 0.29 cm.
(§2) The monochlorodimedon (MCD) assay (Hager et al., 1966, J. Biol. Chem., 241:1769-1777) was used to detect peracid formation. Each reaction contained MCD (0.18 mM), H2O2 (90 mM), NaBr (90 mM) in acetate buffer (1 M, pH 5.5) at 25° C. The reaction was followed spectrophotometrically at 290 nm in UV-transparent microtiter plates (ε=19.9×10^3 M^−1 cm^−1).
(§3) An estimate of kinetic parameters was also obtained for hydrogen peroxide in wild-type and Leu29Pro. The hydrogen peroxide in wild-type was 5, 10, 20, 50, 100, and 200 mM; for Leu29Pro, the concentrations were 5, 10, 20, 35, 50, 121, 152, and 200 mM.

[2] = target: T2, Pseudomonas fluorescens aryl esterase (PFE) variant Leu29Pro (parent SEQ ID NO:3) (Pseudomonas fluorescens, UniProt P22862, L30P)
T2 sequence (P22862 1-272 L30P): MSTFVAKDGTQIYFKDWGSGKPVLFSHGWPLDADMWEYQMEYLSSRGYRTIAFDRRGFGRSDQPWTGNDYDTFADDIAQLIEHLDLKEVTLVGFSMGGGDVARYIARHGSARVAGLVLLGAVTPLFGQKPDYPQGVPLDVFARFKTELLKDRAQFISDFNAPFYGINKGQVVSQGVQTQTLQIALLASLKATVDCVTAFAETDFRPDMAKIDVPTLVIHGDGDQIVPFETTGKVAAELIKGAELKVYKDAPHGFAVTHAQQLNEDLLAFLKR
Description: as §1, §2, §3

[3] = target: T2, Pseudomonas fluorescens aryl esterase (PFE) variant Leu29Pro (parent SEQ ID NO:3); experiment: Kinetics of p-nitrophenyl acetate hydrolysis, Leu29Pro PFE; type: biochemical; design: expressed as in Cheeseman et al. 2004
Description: (§4) The p-nitrophenyl acetate (pNPAc) assay contained pNPAc (0.3 mM) and 8% acetonitrile as co-solvent in BES buffer (5 mM, pH 7.2). The reaction was monitored spectrophotometrically at 404 nm (ε=11.4·10 ^3 M^−1 cm^−1). A pH-indicator assay was used to assay substrates without inherent light absorbing properties (Janes et al., 1998, Chem. Eur. J. 4:2324-2331). The reactions were carried out in BES buffer (5 mM, pH 7.2) containing p-nitrophenol. As hydrolysis progresses, protons add to the p-nitrophenolate and the course of reaction can be monitored as a decrease in absorbance at 404 nm (ε=16.5·10^3 M^−1 cm^−1). This provides a good estimate of reaction rates, but is limited to substrates containing only one possible acid-functionality, as several would interfere with the pH indicator.
(§5) Kinetic parameters for hydrolysis of pNPAc in wild-type and Leu29Pro were carried out with pNPAc at 0.1, 0.2, 0.5, 1.0, 2.0, 4.0, and 10 mM under otherwise identical conditions as for the pNPAc-assay. Solubility problems limited higher substrate concentrations than 10 mM. Data points were fitted by non-linear regression using OriginPro 7.5 SR1 v7.5776 (OriginLab Corporation, Northampton, Mass.) with a hyperbola function of basic equation y=P1*x/(P2+x), where x is the substrate concentration (mM), P1 corresponds to Vmax (μmol min^−1 mg^−1 or U/mg), and P2 corresponds to KM (mM). R^2-values for were 0.992 and 0.997 for wild-type and Leu29Pro, respectively.

[4] = substrate: CC(=O)Oc1ccc([N+](=O)[O-])cc1; experiment: Kinetics of p-nitrophenyl acetate hydrolysis, wild-type PFE; type: biochemical, Pseudomonas fluorescens; settings: other: hydrolysis of pNPAc 0.1-10 mM, 5 mM BES pH 7.2, 8% acetonitrile
Description: as §4, §5

[5] = substrate: CC(=O)Oc1ccc([N+](=O)[O-])cc1; experiment: Kinetics of p-nitrophenyl acetate hydrolysis, Leu29Pro PFE; type: biochemical, Pseudomonas fluorescens; settings: other: hydrolysis of pNPAc 0.1-10 mM, 5 mM BES pH 7.2, 8% acetonitrile
Description: as §4, §5

[6] = perhydrolysis, H2O2 5-200 mM, 1 M acetate pH 5.5, 25° C.
[7] = perhydrolysis, H2O2 5-200 mM, 1 M acetate pH 5.5, 25° C., Leu29Pro

With `OO` [H2O2, hydrogen peroxide] the Vmax/KM ([1]; perhydrolysis of acetic acid, H2O2) was 13 U mg^−1 M^−1, the Km [1, 6] was 17 mM and the Vmax [1, 6] was 0.22 ± 0.02 U mg^−1. For the same molecule, the Vmax ([1]; perhydrolysis, H2O2 5-200 mM, 1 M acetate pH 5.5, 25° C., listed as hydrogen peroxide) was 0.22 U mg^−1, the “fold increase in Vmax for perhydrolysis” value ([2]; Leu29Pro vs wild-type) was 50 fold and the “fold increase in catalytic efficiency (Vmax/KM) for perhydrolysis of acetic acid” value ([2]; Leu29Pro vs wild-type) was 14 fold. For the same molecule, the “increase in Km for hydrogen peroxide” value ([2]; Leu29Pro vs wild-type) was “three-fold”, the Vmax/KM ([2]; perhydrolysis of acetic acid, H2O2, Leu29Pro) was 180 U mg^−1 M^−1 and the Km [2, 7] was 58 mM. It also gave a Vmax [2, 7] of 11 ± 1 U mg^−1 and a Vmax ([2]; perhydrolysis, H2O2 5-200 mM, 1 M acetate pH 5.5, 25° C., Leu29Pro, listed as hydrogen peroxide) of 11 U mg^−1.

In the case of `CC(=O)Oc1ccc([N+](=O)[O-])cc1` [pNPAc, p-nitrophenyl acetate], the “fold decrease in Vmax for hydrolysis of pNPAc” value ([3]; Leu29Pro vs wild-type) is reported as 50 fold, the “increase in KM for pNPAc” value ([3]; Leu29Pro vs wild-type) is reported as “three-fold” and the “fold change in catalytic efficiency (Vmax/KM) for hydrolysis of pNPAc” value ([3]; Leu29Pro vs wild-type (decrease)) is reported as 165 fold.

B1: Pseudomonas fluorescens aryl esterase (PFE), wild-type, SEQ ID NO:3 (Pseudomonas fluorescens) (protein)
chain: MSTFVAKDGTQIYFKDWGSGKPVLFSHGWLLDADMWEYQMEYLSSRGYRTIAFDRRGFGRSDQPWTGNDYDTFADDIAQLIEHLDLKEVTLVGFSMGGGDVARYIARHGSARVAGLVLLGAVTPLFGQKPDYPQGVPLDVFARFKTELLKDRAQFISDFNAPFYGINKGQVVSQGVQTQTLQIALLASLKATVDCVTAFAETDFRPDMAKIDVPTLVIHGDGDQIVPFETTGKVAAELIKGAELKVYKDAPHGFAVTHAQQLNEDLLAFLKR
notes: expressed as in Cheeseman et al. 2004
In the case of B1, the Km [4] is reported as 2.8 ± 0.4 mM, the Vmax [4] is reported as 143 µmol/min/mg and the Vmax/Km [4] is reported as 51000 µL/min/mg.

B2: Pseudomonas fluorescens aryl esterase (PFE) variant Leu29Pro (parent SEQ ID NO:3) (Pseudomonas fluorescens; L30P) (protein)
chain: MSTFVAKDGTQIYFKDWGSGKPVLFSHGWPLDADMWEYQMEYLSSRGYRTIAFDRRGFGRSDQPWTGNDYDTFADDIAQLIEHLDLKEVTLVGFSMGGGDVARYIARHGSARVAGLVLLGAVTPLFGQKPDYPQGVPLDVFARFKTELLKDRAQFISDFNAPFYGINKGQVVSQGVQTQTLQIALLASLKATVDCVTAFAETDFRPDMAKIDVPTLVIHGDGDQIVPFETTGKVAAELIKGAELKVYKDAPHGFAVTHAQQLNEDLLAFLKR
notes: as for B1
Work on B2 yielded a Km [5] of 8.9 ± 1.1 mM, a Vmax [5] of 2.8 µmol/min/mg and a Vmax/Km [5] of 310 µL/min/mg.
